From patent US20080221205A1, “FURAN DERIVATIVES FOR PREVENTING AND CURING OSTEOPOROSIS AND PHARMACEUTICAL COMPOSITIONS CONTAINING THE SAME” (priority 2002, published 2008) come the findings set out here.

The assay deals with ovariectomized white mice. The assay can be described thus: Preventive effect 1 on osteoporosis: tibia histology, oral administration after ovariectomy. It is filed as in vivo. The settings on record: 10 mg/day, four weeks from ovariectomy, versus untreated control. How it is done:
In order to evaluate effects of the compound of the present invention on treatment and prevention of osteoporosis, female white mice with osteoporosis induced by ovariectomy were used as a disease model. After ovariectomy, mice were administered with the compound of the present invention. Tibias were dissected from the mice, and observed histologically.
After anesthetizing female white mice with 100 mg/kg of Ketamine (Ketara) and 0.15 ml/kg of 2% Xylazine (Rompun), the lumbar dorsum is shaved bilaterally and the exposed skin was prepared for aseptic surgery by a 10% povidone-iodine scrub followed by a 70% alcohol wipe.
A 1-cm incision was made in the central region of the abdomen, and the ovary was identified along with the uterus with caution not to damage the main organs such as the liver and diaphragm. After ligating the uterus with a thread for suturing, the exposed ovary was severed toward both sides and removed. Thereafter, each organ was relocated to its original position, and the incision was closed with a thread for suturing in an interrupted pattern. […]
The daily dosage of the Compound 1 per female white mouse was determined based on 250 g body weight. […] With caution not to exchange the water bottles between the groups, everyday, the number of mice was recorded, and the mixture was prepared based on the number of mice. […]

Entries after “also recorded” stand apart in the source; their conditions may differ.

Take `O=Cc1ccc(CO)o1` [Compound 1, 5-hydroxymethylfuran-2-carboxyaldehyde]: the “Trabecular and cortical bone of tibia, light microscopy” value was “trabecular bone loss was not observed; also recorded: marked increase in the cortical and trabecualr bone; also recorded: no trabecular bone loss”.
